In patent publication US11739350B2 (priority 2018, dated 2023):

System: HPAFII tumours
Design: species or system SCID mice
Details: mouse, in vivo, ip

GSK126
tumor volumes: 1609.3 mm^3
